Patent US11708348B2, “Protease inhibitors for treatment of coronavirus infections” (The Scripps Research Institute, priority 2021, dated 2023)
Where two headings read alike, the source gives them in different places.

Tested on: SARS-CoV-2 strain USA-WA1/2020
Experiment: microbe, parasite or virus in culture
Type: cell-based
Details: Severe acute respiratory syndrome coronavirus 2, HeLa-ACE2, 24 h, read-out: EC50, uM (Hela)
[1] = HeLa-ACE2 cells, SARS-CoV-2 infection, 24 h

Compound	EC50	EC50 [1]
O=C1NCC[C@H]1C[C@H](NC(=O)[C@@H]1CC2(CC2)CN1C(=O)C1(NC(=O)C(F)(F)F)CCC(F)(F)CC1)C(=O)COC(F)(F)F [Compound 680, (S)-5-(4,4-difluoro-1-(2,2,2-trifluoroacetamido)cyclohexane-1-carbonyl)-N-((S)-3-oxo-1-((S)-2-oxopyrrolidin-3-yl)-4-(trifluoromethoxy)butan-2-yl)-5-azaspiro[2.4]heptane-6-carboxamide]	0.2 to 0.5 µM	–
O=C1NCC[C@H]1C[C@H](NC(=O)[C@@H]1CC2(CC2)CN1C(=O)C(O)(c1ccccc1)C(F)(F)F)C(=O)COC(F)(F)F (stereo partly drawn) [Compound 681, (6S)-N-((S)-3-oxo-1-((S)-2-oxopyrrolidin-3-yl)-4-(trifluoromethoxy)butan-2-yl)-5-(3,3,3-trifluoro-2-hydroxy-2-phenylpropanoyl)-5-azaspiro[2.4]heptane-6-carboxamide]	–	0.05 to 0.2 µM
O=C1NCC[C@H]1C[C@H](NC(=O)[C@@H]1CC2(CC2)CN1C(=O)C1CCOCC1)C(=O)COC(F)(F)F [Compound 682, (S)-N-((S)-3-oxo-1-((S)-2-oxopyrrolidin-3-yl)-4-(trifluoromethoxy)butan-2-yl)-5-(tetrahydro-2H-pyran-4-carbonyl)-5-azaspiro[2.4]heptane-6-carboxamide]	–	0.2 to 0.5 µM
O=C1NCC[C@H]1C[C@H](NC(=O)[C@@H]1CC2(CC2)CN1C(=O)CCC(F)F)C(=O)COC(F)(F)F [Compound 683, (S)-5-(4,4-difluorobutanoyl)-N-((S)-3-oxo-1-((S)-2-oxopyrrolidin-3-yl)-4-(trifluoromethoxy)butan-2-yl)-5-azaspiro[2.4]heptane-6-carboxamide]	–	0.05 to 0.2 µM
O=C1NCC[C@H]1C[C@H](NC(=O)[C@@H]1CC2(CC2)CN1C(=O)CC(F)(F)C(F)F)C(=O)COC(F)(F)F [Compound 684, (S)-N-((S)-3-oxo-1-((S)-2-oxopyrrolidin-3-yl)-4-(trifluoromethoxy)butan-2-yl)-5-(3,3,4,4-tetrafluorobutanoyl)-5-azaspiro[2.4]heptane-6-carboxamide]	–	0.05 to 0.2 µM
O=C1NCC[C@H]1C[C@H](NC(=O)[C@@H]1CC2(CC2)CN1C(=O)c1ccccc1C(F)(F)F)C(=O)COC(F)(F)F [Compound 686, (S)-N-((S)-3-oxo-1-((S)-2-oxopyrrolidin-3-yl)-4-(trifluoromethoxy)butan-2-yl)-5-(2-(trifluoromethyl)benzoyl)-5-azaspiro[2.4]heptane-6-carboxamide]	–	< 0.05 µM
O=C1NCC[C@H]1C[C@H](NC(=O)[C@@H]1CC2(CC2)CN1C(=O)c1ccc2c(c1)OC(F)(F)O2)C(=O)COC(F)(F)F [Compound 687, (S)-5-(2,2-difluorobenzo[d][1,3]dioxole-5-carbonyl)-N-((S)-3-oxo-1-((S)-2-oxopyrrolidin-3-yl)-4-(trifluoromethoxy)butan-2-yl)-5-azaspiro[2.4]heptane-6-carboxamide]	–	< 0.05 µM
CCC(=O)N1CC2(CC2)C[C@H]1C(=O)N[C@@H](C[C@@H]1CCNC1=O)C(=O)COC(F)(F)F [Compound 688, (S)-N-((S)-3-oxo-1-((S)-2-oxopyrrolidin-3-yl)-4-(trifluoromethoxy)butan-2-yl)-5-propionyl-5-azaspiro[2.4]heptane-6-carboxamide]	–	0.05 to 0.2 µM
C=CCC(=O)N1CC2(CC2)C[C@H]1C(=O)N[C@@H](C[C@@H]1CCNC1=O)C(=O)COC(F)(F)F [Compound 689, (S)-5-(but-3-enoyl)-N-((S)-3-oxo-1-((S)-2-oxopyrrolidin-3-yl)-4-(trifluoromethoxy)butan-2-yl)-5-azaspiro[2.4]heptane-6-carboxamide]	–	0.05 to 0.2 µM
C=CCCC(=O)N1CC2(CC2)C[C@H]1C(=O)N[C@@H](C[C@@H]1CCNC1=O)C(=O)COC(F)(F)F [Compound 690, (S)-N-((S)-3-oxo-1-((S)-2-oxopyrrolidin-3-yl)-4-(trifluoromethoxy)butan-2-yl)-5-(pent-4-enoyl)-5-azaspiro[2.4]heptane-6-carboxamide]	–	0.05 to 0.2 µM
CNS(=O)(=O)NCC(=O)N1CC2(CC2)C[C@H]1C(=O)N[C@@H](C[C@@H]1CCNC1=O)C(=O)COC(F)(F)F [Compound 691, (S)-5-((N-methylsulfamoyl)glycyl)-N-((S)-3-oxo-1-((S)-2-oxopyrrolidin-3-yl)-4-(trifluoromethoxy)butan-2-yl)-5-azaspiro[2.4]heptane-6-carboxamide]	–	0.5 to 1 µM
CN(C)S(=O)(=O)NCC(=O)N1CC2(CC2)C[C@H]1C(=O)N[C@@H](C[C@@H]1CCNC1=O)C(=O)COC(F)(F)F [Compound 692, (S)-5-((N,N-dimethylsulfamoyl)glycyl)-N-((S)-3-oxo-1-((S)-2-oxopyrrolidin-3-yl)-4-(trifluoromethoxy)butan-2-yl)-5-azaspiro[2.4]heptane-6-carboxamide]	–	0.2 to 0.5 µM
CN(C)S(=O)(=O)N(C)CC(=O)N1CC2(CC2)C[C@H]1C(=O)N[C@@H](C[C@@H]1CCNC1=O)C(=O)COC(F)(F)F [Compound 693, (S)-5-(N-(N,N-dimethylsulfamoyl)-N-methylglycyl)-N-((S)-3-oxo-1-((S)-2-oxopyrrolidin-3-yl)-4-(trifluoromethoxy)butan-2-yl)-5-azaspiro[2.4]heptane-6-carboxamide]	–	0.2 to 0.5 µM
O=C1NCC[C@H]1C[C@H](NC(=O)[C@@H]1CC2(CC2)CN1C(=O)c1ccccc1)C(=O)COC(F)(F)F [Compound 694, (S)-5-benzoyl-N-((S)-3-oxo-1-((S)-2-oxopyrrolidin-3-yl)-4-(trifluoromethoxy)butan-2-yl)-5-azaspiro[2.4]heptane-6-carboxamide]	–	0.05 to 0.2 µM
CC(C)Cn1cc(C(=O)N2CC3(CC3)C[C@H]2C(=O)N[C@@H](C[C@@H]2CCNC2=O)C(=O)COC(F)(F)F)nn1 [Compound 695, (S)-5-(1-isobutyl-1H-1,2,3-triazole-4-carbonyl)-N-((S)-3-oxo-1-((S)-2-oxopyrrolidin-3-yl)-4-(trifluoromethoxy)butan-2-yl)-5-azaspiro[2.4]heptane-6-carboxamide]	–	0.05 to 0.2 µM
CC(C)C[C@@H](O)C(=O)N1CCC[C@H]1C(=O)N[C@@H](C[C@@H]1CCNC1=O)C(=O)COC(F)(F)F [Compound 696, (S)-1-((R)-2-hydroxy-4-methylpentanoyl)-N-((S)-3-oxo-1-((S)-2-oxopyrrolidin-3-yl)-4-(trifluoromethoxy)butan-2-yl)pyrrolidine-2-carboxamide]	0.05 to 0.2 µM	–
C[C@@H](O)C(=O)N1CC2(CC2)C[C@H]1C(=O)N[C@@H](C[C@@H]1CCNC1=O)C(=O)COC(F)(F)F [Compound 697, (S)-5-((R)-2-hydroxypropanoyl)-N-((S)-3-oxo-1-((S)-2-oxopyrrolidin-3-yl)-4-(trifluoromethoxy)butan-2-yl)-5-azaspiro[2.4]heptane-6-carboxamide]	–	0.05 to 0.2 µM
O=C1NCC[C@H]1C[C@H](NC(=O)[C@@H]1CC2(CC2)CN1C(=O)CO)C(=O)COC(F)(F)F [Compound 698, (S)-5-(2-hydroxyacetyl)-N-((S)-3-oxo-1-((S)-2-oxopyrrolidin-3-yl)-4-(trifluoromethoxy)butan-2-yl)-5-azaspiro[2.4]heptane-6-carboxamide]	–	0.05 to 0.2 µM
O=C1NCC[C@H]1C[C@H](NC(=O)[C@@H]1CC2(CC2)CN1C(=O)c1cc(F)cc(F)c1)C(=O)COC(F)(F)F [Compound 699, (S)-5-(3,5-difluorobenzoyl)-N-((S)-3-oxo-l-((S)-2-oxopyrrolidin-3-yl)-4-(trifluoromethoxy)butan-2-yl)-5-azaspiro[2.4]heptane-6-carboxamide]	–	0.05 to 0.2 µM
C[C@](O)(C(=O)N1CC2(CC2)C[C@H]1C(=O)N[C@@H](C[C@@H]1CCNC1=O)C(=O)COC(F)(F)F)C(F)(F)F [Compound 700, (S)-N-((S)-3-oxo-1-((S)-2-oxopyrrolidin-3-yl)-4-(trifluoromethoxy)butan-2-yl)-5-((S)-3,3,3-trifluoro-2-hydroxy-2-methylpropanoyl)-5-azaspiro[2.4]heptane-6-carboxamide]	–	0.05 to 0.2 µM
O=C1NCC[C@H]1C[C@H](NC(=O)[C@@H]1CC2(CC2)CN1C(=O)CC1CC(F)(F)C1)C(=O)COC(F)(F)F [Compound 701, (S)-5-(2-(3,3-difluorocyclobutyl)acetyl)-N-((S)-3-oxo-1-((S)-2-oxopyrrolidin-3-yl)-4-(trifluoromethoxy)butan-2-yl)-5-azaspiro[2.4]heptane-6-carboxamide]	–	< 0.05 µM
O=C1NCC[C@H]1C[C@H](NC(=O)[C@@H]1CC2(CC2)CN1C(=O)c1ccc(Cl)cc1F)C(=O)COC(F)(F)F [Compound 702, (S)-5-(4-chloro-2-fluorobenzoyl)-N-((S)-3-oxo-1-((S)-2-oxopyrrolidin-3-yl)-4-(trifluoromethoxy)butan-2-yl)-5-azaspiro[2.4]heptane-6-carboxamide]	–	0.05 to 0.2 µM
O=C1NCC[C@H]1C[C@H](NC(=O)[C@@H]1CC2(CC2)CN1C(=O)C(F)(F)F)C(=O)COC(F)(F)F [Compound 703, (S)-N-((S)-3-oxo-1-((S)-2-oxopyrrolidin-3-yl)-4-(trifluoromethoxy)butan-2-yl)-5-(2,2,2-trifluoroacetyl)-5-azaspiro[2.4]heptane-6-carboxamide]	0.2 to 0.5 µM	–
CC(C)C(=O)N1CC2(CC2)C[C@H]1C(=O)N[C@@H](C[C@@H]1CCNC1=O)C(=O)COC(F)(F)F [Compound 704, (S)-5-isobutyryl-N-((S)-3-oxo-1-((S)-2-oxopyrrolidin-3-yl)-4-(trifluoromethoxy)butan-2-yl)-5-azaspiro[2.4]heptane-6-carboxamide]	–	0.05 to 0.2 µM
CCCC(=O)N1CC2(CC2)C[C@H]1C(=O)N[C@@H](C[C@@H]1CCNC1=O)C(=O)COC(F)(F)F [Compound 705, (S)-5-butyryl-N-((S)-3-oxo-1-((S)-2-oxopyrrolidin-3-yl)-4-(trifluoromethoxy)butan-2-yl)-5-azaspiro[2.4]heptane-6-carboxamide]	–	0.2 to 0.5 µM
CC(C)CC(=O)N1CC2(CC2)C[C@H]1C(=O)N[C@@H](C[C@@H]1CCNC1=O)C(=O)COC(F)(F)F [Compound 707, (S)-5-(3-methylbutanoyl)-N-((S)-3-oxo-1-((S)-2-oxopyrrolidin-3-yl)-4-(trifluoromethoxy)butan-2-yl)-5-azaspiro[2.4]heptane-6-carboxamide]	–	0.05 to 0.2 µM
